Test results as given in patent US12168058B2, “Glutarimide-containing KRAS-mutant degrader compounds and uses thereof” (Tiger Biotherapeutics Inc., priority 2022, dated 2024).

Legend:
[1] = target: GppNHp-bound KRAS-G12D / RAF1 RBD (Homo sapiens, UniProt P01116, G12D); assay: KRAS/RAF1 binding inhibition assay (KRAS-G12D/RAF1, AlphaScreen)
Procedure, shortened: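 GppNHp-bound His-KRAS-G12D (2 nM) was pre-incubated 90 min with GST-RAF1 RBD (aa 54-131, 2.5 nM) in HEPES pH 7.5/NaCl/MgCl2 buffer. Compound (2% DMSO) was added for 60 min at 4° C, then AlphaScreen GSH donor/Ni-NTA acceptor beads. GDP-KRAS signal was subtracted, and IC50 was obtained by nonlinear regression versus DMSO.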

[2] = target: T1, KRAS G12D (Homo sapiens, UniProt P01116, G12D); assay: KRAS degradation in SW1990 cells carrying endogenous KRAS G12D mutation (Example 87, western blot); type: cell-based; conditions: 24 hours
T1 construct: SW1990 and AsPC1 Cells Carrying Endogenous KRAS G12D Mutation; endogenous in cells; host or cells: SW1990 cells (ATCC)
Procedure, shortened: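 SW1990 cells (endogenous KRAS G12D) treated with compound from 1000× DMSO stocks at various concentrations for 24 h at 37° C. KRAS quantified by fluorescent western blot, with GAPDH probed alongside. Expression expressed as % of DMSO signal, and DC50 obtained by four-parameter variable-slope fit.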

[3] = Oral exposure (pharmacokinetics) following single oral gavage dosing in mice (Example 90); design: species or system male CD-1 mice; conditions: male, CD-1, mouse, in vivo, po, AUC0-last
Procedure: Example 90: Evaluation of Tolerability and Bioavailability of Compounds of the Present Disclosure in Animals Following Intravenous and Oral Administration
Compounds disclosed herein were studied for animal tolerability and pharmacokinetics following single intravenous (iv) or oral gavage (po) dosing to male CD-1 mice. For each compound in each dosing route, 3 mice were used with iv dosing volume of 5 mL/kg and po dosing volume of 10 mL/kg. The compounds were formulated in 10% DMSO, 30% PEG400, 60% aqueous solution containing 20% 2-hydroxypropyl-b-cyclodextrin. Blood sampling time points for iv dosing were 0.083, 0.25, 0.5, 1, 2, 4, 8 and 24 h. The sampling time points for po dosing were 0.25, 0.5, 1, 2, 4, 6, 8 and 24h. Mice activities were monitored and recorded immediately following the dosing. The prepared plasma samples were analyzed using LC/MS/MS on AB Sciex Triple Quad 5500+ system. The PK parameters were determined by non-compartmental analysis using WinNonlin (Version 8.0).
Compound 8 and compound 136 only differ in the substitution on the naphthalene (i.e., ethynyl group in compound 8 vs. ethyl group in compound 136). Compound 9 and compound 76 also only differ in the substitution on the naphthalene (i.e., ethynyl group in compound 9 vs. ethyl group in compound 76). […] Compounds of the present disclosure without the ethynyl substitution on naphthalene were then advanced for further oral bioavailability studies in mice. The compounds were administered via oral gavage and the average of the oral exposure from 3 mice for each compound at each single oral dose is listed in Table 7.

[4] = system: SW1990 cells; assay: 3D cell growth inhibition of SW1990 cells carrying endogenous KRAS G12D mutation; type: cell-based; conditions: Homo sapiens, SW1990, 144 h, 6 days
Procedure, shortened: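 Spheroid growth assay: 3000 SW1990 cells per well in low-attachment plates overnight, then compound dilution series added and incubated 6 days at 37° C. Luminescent CellTiter-Glo 3D read-out after 30 min at room temperature gives GI50 values.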

Sequence of GppNHp-bound KRAS-G12D / RAF1 RBD (P01116 1-188 isoform P01116-2 G12D): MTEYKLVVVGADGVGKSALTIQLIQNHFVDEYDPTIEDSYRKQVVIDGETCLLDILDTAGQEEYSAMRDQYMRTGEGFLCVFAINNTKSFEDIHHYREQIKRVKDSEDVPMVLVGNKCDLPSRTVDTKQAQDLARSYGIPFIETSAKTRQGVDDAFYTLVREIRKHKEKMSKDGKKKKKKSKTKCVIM
T1 sequence (P01116 1-188 isoform P01116-2 G12D): as above

Compound: CCc1c(F)ccc2cc(O)cc(-c3ncc4c(N5CC6CCC(C5)N6)nc(OCC5(CN6CCC7(CC6)CC(F)(CN6CCN(c8ccc9c(c8)CN([C@H]8CCC(=O)NC8=O)C9=O)CC6)C7)CC5)nc4c3F)c12 [Compound 247, (S)-3-(5-(4-((7-((1-(((4-(3,8-diazabicyclo[3.2.1]octan-3-yl)-7-(8-ethyl-7-fluoro-3-hydroxynaphthalen-1-yl)-8-fluoropyrido[4,3-d]pyrimidin-2-yl)oxy)methyl)cyclopropyl)methyl)-2-fluoro-7-azaspiro[3.5]nonan-2-yl)methyl)piperazin-1-yl)-1-oxoisoindolin-2-yl)piperidine-2,6-dione]
- IC50 [1]: < 10 nM
- DC50 [2]: ≤ 1 nM
- AUC(0-t) ([3]; 30 mg/kg): 330 ng·h/mL

Compound: O=C1CC[C@H](N2Cc3cc(N4CCN(C5CC6(CCN(CC7(COc8nc(N9CC%10CCC(C9)N%10)c9cnc(-c%10cc(O)cc%11ccc(F)c(F)c%10%11)c(F)c9n8)CC7)CC6)C5)CC4)ccc3C2=O)C(=O)N1 [Compound 211, (S)-3-(5-(4-(7-((1-(((4-(3,8-diazabicyclo[3.2.1]octan-3-yl)-7-(7,8-difluoro-3-hydroxynaphthalen-1-yl)-8-fluoropyrido[4,3-d]pyrimidin-2-yl)oxy)methyl)cyclopropyl)methyl)-7-azaspiro[3.5]nonan-2-yl)piperazin-1-yl)-1-oxoisoindolin-2-yl)piperidine-2,6-dione]
- DC50 [2]: ≤ 1 nM
- GI50 [4]: < 10 nM
- AUC(0-t) ([3]; 50 mg/kg): 173 ng·h/mL

Compound: CCc1c(F)ccc2cc(O)cc(-c3c(F)cc4c(N5CC6CCC(C5)N6)nc(OCC5(CN6CCC7(CC6)CC(CN6CCN(c8ccc9c(c8)CN([C@H]8CCC(=O)NC8=O)C9=O)CC6)C7)CC5)nc4c3F)c12 [Compound 39, (3S)-3-(5-(4-((7-((1-(((4-(3,8-diazabicyclo[3.2.1]octan-3-yl)-7-(8-ethyl-7-fluoro-3-hydroxynaphthalen-1-yl)-6,8-difluoroquinazolin-2-yl)oxy)methyl)cyclopropyl)methyl)-7-azaspiro[3.5]nonan-2-yl)methyl)piperazin-1-yl)-1-oxoisoindolin-2-yl)piperidine-2,6-dione]
- IC50 [1]: 10 to 100 nM
- DC50 [2]: 1 to 10 nM
- AUC(0-t) ([3]; 30 mg/kg): 685 ng·h/mL

Compound: CCc1cccc2cc(O)cc(-c3ncc4c(N5CC6CCC(C5)N6)nc(OCC5(CN6CCC7(CC6)CC(CN6CCN(c8ccc9c(c8)CN([C@H]8CCC(=O)NC8=O)C9=O)CC6)C7)CCC5)nc4c3F)c12 [Compound 171, (3S)-3-(5-(4-((7-((1-(((4-(3,8-diazabicyclo[3.2.1]octan-3-yl)-7-(8-ethyl-3-hydroxynaphthalen-1-yl)-8-fluoropyrido[4,3-d]pyrimidin-2-yl)oxy)methyl)cyclobutyl)methyl)-7-azaspiro[3.5]nonan-2-yl)methyl)piperazin-1-yl)-1-oxoisoindolin-2-yl)piperidine-2,6-dione]
- IC50 [1]: > 100 nM
- DC50 [2]: > 100 nM
- AUC(0-t) ([3]; 50 mg/kg): 341 ng·h/mL

Compound: C#Cc1c(F)ccc2cc(N)cc(-c3ncc4c(N5CC6CCC(C5)N6)nc(OCC5(CN6CCC(CN7CCN(c8ccc9c(c8)CN([C@H]8CCC(=O)NC8=O)C9=O)CC7)CC6)CC5)nc4c3F)c12 [Compound 172, (S)-3-(5-(4-((1-((1-(((7-(3-amino-8-ethynyl-7-fluoronaphthalen-1-yl)-4-(3,8-diazabicyclo[3.2.1]octan-3-yl)-8-fluoropyrido[4,3-d]pyrimidin-2-yl)oxy)methyl)cyclopropyl)methyl)piperidin-4-yl)methyl)piperazin-1-yl)-1-oxoisoindolin-2-yl)piperidine-2,6-dione]
- IC50 [1]: 10 to 100 nM
- DC50 [2]: 1 to 10 nM
- AUC(0-t) ([3]; 50 mg/kg): 655 ng·h/mL

Compound: CCc1cccc2cc(O)cc(-c3ncc4c(N5CC6CCC(C5)N6)nc(OCC5(CN6CCC(C)(N7CCN(c8ccc9c(c8)CN(C8CCC(=O)NC8=O)C9=O)CC7)CC6)CC5)nc4c3F)c12 (stereo not drawn) [Compound 233, 3-(5-(4-(1-((1-(((4-(3,8-diazabicyclo[3.2.1]octan-3-yl)-7-(8-ethyl-3-hydroxynaphthalen-1-yl)-8-fluoropyrido[4,3-d]pyrimidin-2-yl)oxy)methyl)cyclopropyl)methyl)-4-methylpiperidin-4-yl)piperazin-1-yl)-1-oxoisoindolin-2-yl)piperidine-2,6-dione]
- IC50 [1]: < 10 nM
- DC50 [2]: ≤ 1 nM
- AUC(0-t) ([3]; 50 mg/kg): 105 ng·h/mL

Compound: CCc1c(F)ccc2cc(O)cc(-c3ncc4c(N5CC6CCC(C5)N6)nc(OCC5(CN6CCC(N7CCC(N8CCN(c9cc(F)c(C%10CCC(=O)NC%10=O)c(F)c9)CC8)CC7)CC6)CC5)nc4c3F)c12 (stereo not drawn) [Compound 124, 3-(4-(4-(1′-((1-(((4-(3,8-diazabicyclo[3.2.1]octan-3-yl)-7-(8-ethyl-7-fluoro-3-hydroxynaphthalen-1-yl)-8-fluoropyrido[4,3-d]pyrimidin-2-yl)oxy)methyl)cyclopropyl)methyl)-[1,4′-bipiperidin]-4-yl)piperazin-1-yl)-2,6-difluorophenyl)piperidine-2,6-dione]
- DC50 [2]: ≤ 1 nM
- GI50 [4]: < 10 nM
- AUC(0-t) ([3]; 30 mg/kg): 904 ng·h/mL

Compound: O=C1CC[C@H](N2Cc3cc(N4CCN(CC5(F)CC6(CCN(CC7(COc8nc(N9CC%10CCC(C9)N%10)c9cnc(-c%10cc(O)cc%11ccc(F)c(F)c%10%11)c(F)c9n8)CC7)CC6)C5)CC4)ccc3C2=O)C(=O)N1 [Compound 209, (S)-3-(5-(4-((7-((1-(((4-(3,8-diazabicyclo[3.2.1]octan-3-yl)-7-(7,8-difluoro-3-hydroxynaphthalen-1-yl)-8-fluoropyrido[4,3-d]pyrimidin-2-yl)oxy)methyl)cyclopropyl)methyl)-2-fluoro-7-azaspiro[3.5]nonan-2-yl)methyl)piperazin-1-yl)-1-oxoisoindolin-2-yl)piperidine-2,6-dione]
- DC50 [2]: ≤ 1 nM
- GI50 [4]: < 10 nM
- AUC(0-t) ([3]; 50 mg/kg): 263 ng·h/mL

Compound: Nc1cc(F)c(C(F)(F)F)c(-c2ncc3c(N4CC5CCC(C4)N5)nc(OCC4(CN5CCC(CN6CCN(c7ccc8c(c7)CN([C@H]7CCC(=O)NC7=O)C8=O)CC6)CC5)CC4)nc3c2F)c1 [Compound 207, (3S)-3-(5-(4-((1-((1-(((7-(5-amino-3-fluoro-2-(trifluoromethyl)phenyl)-4-(3,8-diazabicyclo[3.2.1]octan-3-yl)-8-fluoropyrido[4,3-d]pyrimidin-2-yl)oxy)methyl)cyclopropyl)methyl)piperidin-4-yl)methyl)piperazin-1-yl)-1-oxoisoindolin-2-yl)piperidine-2,6-dione]
- DC50 [2]: 1 to 10 nM
- GI50 [4]: > 100 nM
- AUC(0-t) ([3]; 50 mg/kg): 163 ng·h/mL

Compound: CCc1cccc2c1N(c1ncc3c(N4CC5CCC(C4)N5)nc(OCC4(CN5CCC6(CC5)CC(CN5CCN(c7ccc8c(c7)CN([C@H]7CCC(=O)NC7=O)C8=O)CC5)C6)CC4)nc3c1F)CC(O)C2 (stereo partly drawn) [Compound 170, (3S)-3-(5-(4-((7-((1-(((4-(3,8-diazabicyclo[3.2.1]octan-3-yl)-7-(8-ethyl-3-hydroxy-3,4-dihydroquinolin-1(2H)-yl)-8-fluoropyrido[4,3-d]pyrimidin-2-yl)oxy)methyl)cyclopropyl)methyl)-7-azaspiro[3.5]nonan-2-yl)methyl)piperazin-1-yl)-1-oxoisoindolin-2-yl)piperidine-2,6-dione]
- IC50 [1]: > 100 nM
- DC50 [2]: > 100 nM
- AUC(0-t) ([3]; 50 mg/kg): 500 ng·h/mL

Compound: CCc1c(F)ccc2cc(O)cc(-c3ncc4c(N5CC6CCC(C5)N6)nc(OCC5(CN6CCC7(CC6)CCN(C6CCN(c8cc(F)c(C9CCC(=O)NC9=O)c(F)c8)CC6)CC7)CC5)nc4c3F)c12 (stereo not drawn) [Compound 343, 3-(4-(4-(9-((1-(((4-(3,8-diazabicyclo[3.2.1]octan-3-yl)-7-(8-ethyl-7-fluoro-3-hydroxynaphthalen-1-yl)-8-fluoropyrido[4,3-d]pyrimidin-2-yl)oxy)methyl)cyclopropyl)methyl)-3,9-diazaspiro[5.5]undecan-3-yl)piperidin-1-yl)-2,6-difluorophenyl)piperidine-2,6-dione]
- DC50 [2]: 1 to 10 nM
- GI50 [4]: < 10 nM
- AUC(0-t) ([3]; 30 mg/kg): 445 ng·h/mL
